Laboratory results reported in publication PMC4205289, “Triptolide inhibits human immunodeficiency virus type 1 replication by promoting proteasomal degradation of Tat protein” (Retrovirology, 2014).

Tests used:
[1] = test system: HIV-1 NL4-3; assay: Time-of-addition experiment in TZM-bl cells; type: cell-based
Protocol: TZM-bl cells seeded in 96-well plates (2 × 10^4 /well) were infected with HIV-1 NL4-3 (MOI = 1). The virus inoculum was removed after 1 h of infection. Test compounds were added at different time points after infection (0 h, 2 h, 4 h, 6 h, 8 h, and 10 h). Dextran sulfate was added at 10 μg/mL, zidovudine at 1 μM and triptolide at 5 nM. At 48 h post-infection, the virus replication level was determined by analyzing luciferase activity in the cells as described above.

[2] = test system: T1, FLAG-Tat; assay: Proteasome inhibition rescue of Tat expression, Western blot, HeLa cells; type: cell-based, HIV-1 NL4-3
T1 construct: expressed in transfected cells; host or cells: HeLa
Protocol: Figure 6 Triptolide reduces Tat protein stability by enhancing proteasomal degradation of Tat. (A) The effect of triptolide on Tat mRNA levels. HeLa cells were transfected with pEF1-Tat in the presence of increasing concentrations of triptolide. Cells were harvested 48 h post-transfection. The steady-state mRNA levels of Tat and GAPDH were examined using semi-quantitative reverse transcription PCR analysis. RT, reverse transcriptase. (B) The effect of triptolide on Tat protein degradation. HeLa cells were transfected with pEF1-FLAG-Tat in the presence of 5 nM triptolide or vehicle (DMSO). At 28 h post-transfection, cells were treated with 20 μg/mL of CHX to arrest protein synthesis. At 0, 1, 2, 3 h post-treatment, cells were harvested to determine protein expression levels using Western blot analysis. (C) The band intensities of FLAG-Tat in panel B were measured, and their natural log values were plotted as a function of time. Results were presented as the mean plus the standard deviations (n = 3). (D) Proteasome inhibition restores Tat protein expression. HeLa cells were transfected with pEF1-FLAG-Tat in the presence or absence of 5 nM triptolide. At 48 h post-transfection, cells were treated with 20 μM of MG132, and cultured for an additional 3 h before harvest. Protein expression levels were determined by Western blot analysis. TEXT PRINTED IN THE PICTURE: (C) DMSO: Half-lives: 2.0 h | (C) Triptolide: Half-lives: 0.4 h
Cells were washed with phosphate buffered saline (PBS) and lysed with radio immunoprecipitation assay lysis buffer supplemented with complete mini protease inhibitor cocktail (Roche) at 4°C for 1 h. Proteins from cell lysates were separated by SDS-PAGE and transferred to polyvinylidene difluoride membranes. After overnight incubation with primary antibodies at 4°C, each blot was probed with horseradish peroxidase-conjugated secondary antibody. Immunoreactive signals were detected with an enhanced chemiluminescence substrate (Thermo Scientific) using an AlphaEaseH FC Imaging System (Alpha Innotech Corporation).

[3] = test system: HIV-1 proviral DNA; assay: Nested PCR of integrated proviral DNA in infected Jurkat cells; type: cell-based; settings: HIV-1 NL4-3 MOI 0.5, 12 h post-infection, 118-D-24 50 μM, flavopiridol 20 nM, triptolide 5 nM
Protocol: (§1) The effects of the test compounds on HIV-1 proviral DNA and mRNA synthesis were analyzed by PCR. Jurkat cells were grown in 24-well plates and infected with the HIV-1 NL4-3 strain at an MOI of 0.5, and then test compounds were added at the desired concentrations. After incubation for 12 h, genomic DNA and mRNA from the infected cells were isolated using a Genomic DNA Mini Preparation Kit (Beyotime, China) and TRIzol reagent (Invitrogen Life Technologies), respectively. Nested PCR was used for the amplification of integrated proviral DNA, as previously described. To determine viral mRNA expression levels, 1 μg of RNA was treated with RQ1 RNase-Free DNase (Promega) and reverse transcribed using M-MLV Reverse Transcriptase (Promega) and random primers (Promega). An aliquot of cDNA was used as template for amplification of the HIV-1 Gag region as described elsewhere. […]
(§2) All of the PCR products were visualized on a UV transilluminator in 2% agarose gels stained with ethidium bromide. In preliminary experiments, the exponential range of the PCR amplification curve was determined for all of the PCR products by varying the amount of input DNA and the number of PCR cycles. Based on these experiments, appropriate conditions were chosen to perform semi-quantitative PCRs.

[4] = test system: HIV-1 mRNA; assay: Reverse-transcription PCR of viral mRNA (Gag region) in infected Jurkat cells; type: cell-based; settings: HIV-1 NL4-3 MOI 0.5, 12 h post-infection, 118-D-24 50 μM, flavopiridol 20 nM, triptolide 5 nM
Protocol: as §1, §2

[5] = test system: HIV-1 molecular clone pNL4-3.Luc.R-E-; assay: Transient gene expression assay, pNL4-3.Luc.R-E- transfected into Jurkat cells; type: cell-based; settings: 24 h, 118-D-24 50 μM, flavopiridol 20 nM, triptolide 0.2 ~ 5 nM
Protocol: Figure 3 Triptolide inhibits HIV-1 transcription. (A) Time-of-addition analysis. TZM-bl cells were infected with HIV-1 (MOI = 0.5, strain NL4-3), and the virus inoculum was removed after 1 h of absorption. Test compounds (dextran sulfate at 10 μg/mL, zidovudine at 1 μM and triptolide at 5 nM) were added at the indicated time points after infection. Reporter signal was monitored at 48 h post-infection as a measure of viral replication. (B) The effect of triptolide on HIV-1 proviral DNA formation. Jurkat cells were infected with HIV-1 (MOI = 0.5, strain NL4-3) in the presence of the test compounds (INI 118-D-24, 50 μM; flavopiridol, 20 nM; and triptolide, 5 nM). Proviral DNA synthesis was determined by nested PCR analysis at 12 h post-infection. (C) The effect of triptolide on HIV-1 mRNA synthesis. Jurkat cells were infected with HIV-1(MOI = 0.5, strain NL4-3) in the presence of the test compounds (INI 118-D-24, 50 μM; flavopiridol, 20 nM; triptolide, 5 nM). Viral mRNA (the Gag region) content was determined by reverse-transcription PCR analysis 12 h post-infection. (D) Inhibition of luciferase expression encoded in pNL4-3.Luc.R-E- by tiptolide. […]
To further confirm that triptolide interferes with HIV-1 transcription, a transient gene expression assay was performed. […] At 24 h after transfection, viral gene transcription (indicated by luciferase activity) was determined. […]

Cc1cn([C@H]2C[C@H](N=[N+]=[N-])[C@@H](CO)O2)c(=O)[nH]c1=O [zidovudine]
inhibition at 1 µM ([1]; Human immunodeficiency virus 1, NL43, TZM-bl, read-out: inhibitory activity retained): 71%

MG132
increase of Tat level ([2]; 20 μM MG132 for 3 h, without triptolide, relative to DMSO control): 30% | restoration of Tat protein, increase as % of Tat level in DMSO control ([2]; 20 μM MG132 for 3 h in the presence of 5 nM triptolide): 30%

Dextran sulfate sodium salt
time-of-addition inhibition profile ([1]; dextran sulfate at 10 μg/mL, luciferase at 48 h): dramatic early loss in activity

CN1CC[C@H](c2c(O)cc(O)c3c(=O)cc(-c4ccccc4Cl)oc23)[C@H](O)C1 [flavopiridol, reference compound]
effect on proviral DNA formation (integration) [3]: no effect on virus integration | effect on viral mRNA synthesis [4]: repress viral mRNA synthesis | effect on luciferase expression from transfected pNL4-3.Luc.R-E- [5]: significantly reduced luciferase expression
